“And” between values parts separate entries of the source, which are not always exact repeats. Identical values can stand only once.
How the values were obtained:
[1] = system: human corneal epithelial cells (EpiOcular™ tissue); assay: Trans-epithelial transport across epithelium construct; assay type: in vitro ADME
Experimental: The transport of the CAPEG4 across an epithelium construct was studied. The epithelium is the outer layer of the cornea and transport across the epithelium has proven to be challenging.
Specifically, the CAPEG4 construct in solution (10) was added to the top of an apparatus including a tissue culture plastic insert (11) containing culture medium (12) and an epithelium construct. (FIG. 19).

[2] = target: T1, γD-crystallin (Homo sapiens, UniProt P07320); assay: Dynamic light scattering (DLS) of γD-crystallin, hydrodynamic radius of monomer and aggregate; assay type: biochemical; settings: γD modified with the agent
T1 construct: 6xHis (N); made in house; host or cells: M15pRep E. coli (pQe1 plasmid from King Labs, MIT)
T1 sequence (P07320 1-174): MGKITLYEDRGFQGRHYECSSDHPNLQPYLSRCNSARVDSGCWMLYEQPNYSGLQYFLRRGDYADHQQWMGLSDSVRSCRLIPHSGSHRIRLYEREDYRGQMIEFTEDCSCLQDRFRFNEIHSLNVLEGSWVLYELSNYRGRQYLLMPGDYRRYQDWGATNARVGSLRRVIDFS
Experimental: The scattering wave vector is defined as q=4πn sin (θ/2)/λ, where θ is the scattering angle, and λ=514.5, the wavelength of the argon laser in vacuum, and n is 1.33, the refractive index of water. The temperature of the sample was held at constant temperature of 4 to 37±0.1° C. by a circulating water bath. The correlation function was analyzed using CONTIN analysis [NT] times for the correlation functions at measured angles. […] The delay times (τ) were converted to Γ and graphed versus q^2. The slope of the fitted line is the diffusion coefficient (D). […] All solutions were filtered with 0.22 μm hydrophobic PVDF membranes (Fisher Scientific) into 10 mm diameter borosilicate glass tubes and sealed. Solutions were allowed to equilibrate for thirty minutes prior to measuring light scattering. […] The pH and salt concentration were adjusted via overnight dialysis at 4° C. and their final concentration adjusted to 1.0 g/L. […] The scattering wave vector is defined as q=4πn sin (θ/2)/λ, where θ is the scattering angle, and λ=514.5, the wavelength of the argon laser in vacuum, and n is 1.33, the refractive index of water. The temperature of the sample was held at constant temperature of 4 to 37±0.1° C. by a circulating water bath. The correlation function was analyzed using CONTIN analysis [NT] times for the correlation functions at measured angles. […] The delay times (τ) were converted to Γ and graphed versus q^2. The slope of the fitted line is the diffusion coefficient (D). […] All solutions were filtered with 0.22 μm hydrophobic PVDF membranes (Fisher Scientific) into 10 mm diameter borosilicate glass tubes and sealed. Solutions were allowed to equilibrate for thirty minutes prior to measuring light scattering.

[3] = 16 mg/mL CAPEG4, blank insert (no tissue) at 15 min

SMILES: NCCOCCOCCOCCOCCC(=O)O [CAPEG4]
- Bottom Average ([1]; 1 mg/ml CAPEG4, 15 min): 13 mcg/well
- Top Average ([1]; 1 mg/ml CAPEG4, 15 min): 449 mcg/well
- Top mcg/well ([1]; 1 mg/ml CAPEG4, 15 min): 427 mcg/well and 472 mcg/well
- Bottom % (stock) ([1]; 1 mg/ml CAPEG4, 15 min, stock 543 mcg/well): 2.4%
- Bottom Average ([1]; 1 mg/ml CAPEG4, 30 min): 31 mcg/well
- Bottom mcg/well ([1]; 1 mg/ml CAPEG4, 30 min): 26 mcg/well and 37 mcg/well
- Top Average ([1]; 1 mg/ml CAPEG4, 30 min): 446 mcg/well
- Top mcg/well ([1]; 1 mg/ml CAPEG4, 30 min): 448 mcg/well and 445 mcg/well
- Bottom % (stock) ([1]; 1 mg/ml CAPEG4, 30 min, stock 543 mcg/well): 5.8%
- Bottom Average ([1]; 1 mg/ml CAPEG4, 45 min): 8 mcg/well
- Bottom mcg/well ([1]; 1 mg/ml CAPEG4, 45 min): 9 mcg/well and 8 mcg/well
- Top Average ([1]; 1 mg/ml CAPEG4, 45 min): 443 mcg/well
- Top mcg/well ([1]; 1 mg/ml CAPEG4, 45 min): 459 mcg/well and 428 mcg/well
- Bottom % (stock) ([1]; 1 mg/ml CAPEG4, 45 min, stock 543 mcg/well): 1.5%
- Bottom Average ([1]; 1 mg/ml CAPEG4, 60 min): 9 mcg/well
- Bottom mcg/well ([1]; 1 mg/ml CAPEG4, 60 min): 8 mcg/well and 11 mcg/well
- Top Average ([1]; 1 mg/ml CAPEG4, 60 min): 421 mcg/well
- Top mcg/well ([1]; 1 mg/ml CAPEG4, 60 min): 454 mcg/well and 388 mcg/well
- Bottom % (stock) ([1]; 1 mg/ml CAPEG4, 60 min, stock 543 mcg/well): 1.7%
- Bottom Average ([1]; 1 mg/ml CAPEG4, 90 min): 31 mcg/well
- Top Average ([1]; 1 mg/ml CAPEG4, 90 min): 463 mcg/well
- Top mcg/well ([1]; 1 mg/ml CAPEG4, 90 min): 467 mcg/well and 459 mcg/well
- Bottom % (stock) ([1]; 1 mg/ml CAPEG4, 90 min, stock 543 mcg/well): 5.7%
- Bottom Average ([1]; 1 mg/ml CAPEG4, 120 min): 25 mcg/well
- Bottom mcg/well ([1]; 1 mg/ml CAPEG4, 120 min): 21 mcg/well and 30 mcg/well
- Top Average ([1]; 1 mg/ml CAPEG4, 120 min): 481 mcg/well
- Top mcg/well ([1]; 1 mg/ml CAPEG4, 120 min): 453 mcg/well and 510 mcg/well
- Bottom % (stock) ([1]; 1 mg/ml CAPEG4, 120 min, stock 543 mcg/well): 4.7%
- Bottom Average ([1]; 1 mg/ml CAPEG4, Time 0 harvest): 3 mcg/well
- Bottom mcg/well ([1]; 1 mg/ml CAPEG4, Time 0 harvest): 4 mcg/well and 3 mcg/well
- Top Average ([1]; 1 mg/ml CAPEG4, Time 0 harvest): 450 mcg/well
- Top mcg/well ([1]; 1 mg/ml CAPEG4, Time 0 harvest): 446 mcg/well and 453 mcg/well
- Bottom % (stock) ([1]; 1 mg/ml CAPEG4, Time 0 harvest, stock 543 mcg/well): 0.6%
- Bottom Average ([1]; 16 mg/mL CAPEG4, 15 min): 60 mcg/well
- Bottom mcg/well ([1]; 16 mg/mL CAPEG4, 15 min): 58 mcg/well and 62 mcg/well
- Top Average ([1]; 16 mg/mL CAPEG4, 15 min): 6375 mcg/well
- Top mcg/well ([1]; 16 mg/mL CAPEG4, 15 min): 5842 mcg/well and 6908 mcg/well
- Bottom % (stock) ([1]; 16 mg/mL CAPEG4, 15 min, stock 8186 mcg/well): 0.7%
- Bottom Average ([1]; 16 mg/mL CAPEG4, 30 min): 99 mcg/well
- Bottom mcg/well ([1]; 16 mg/mL CAPEG4, 30 min): 93 mcg/well and 105 mcg/well
- Top Average ([1]; 16 mg/mL CAPEG4, 30 min): 6312 mcg/well
- Top mcg/well ([1]; 16 mg/mL CAPEG4, 30 min): 6099 mcg/well and 6526 mcg/well
- Bottom % (stock) ([1]; 16 mg/mL CAPEG4, 30 min, stock 8186 mcg/well): 1.2%
- Bottom Average ([1]; 16 mg/mL CAPEG4, 45 min): 548 mcg/well
- Bottom mcg/well ([1]; 16 mg/mL CAPEG4, 45 min): 677 mcg/well and 418 mcg/well
- Top Average ([1]; 16 mg/mL CAPEG4, 45 min): 6335 mcg/well
- Top mcg/well ([1]; 16 mg/mL CAPEG4, 45 min): 6313 mcg/well and 6356 mcg/well
- Bottom % (stock) ([1]; 16 mg/mL CAPEG4, 45 min, stock 8186 mcg/well): 6.7%
- Bottom Average ([1]; 16 mg/mL CAPEG4, 60 min): 149 mcg/well
- Bottom mcg/well ([1]; 16 mg/mL CAPEG4, 60 min): 160 mcg/well and 139 mcg/well
- Top Average ([1]; 16 mg/mL CAPEG4, 60 min): 6972 mcg/well
- Top mcg/well ([1]; 16 mg/mL CAPEG4, 60 min): 6450 mcg/well and 7494 mcg/well
- Bottom % (stock) ([1]; 16 mg/mL CAPEG4, 60 min, stock 8186 mcg/well): 1.8%
- Bottom Average ([1]; 16 mg/mL CAPEG4, 90 min): 525 mcg/well
- Bottom mcg/well ([1]; 16 mg/mL CAPEG4, 90 min): 525 mcg/well
- Top Average ([1]; 16 mg/mL CAPEG4, 90 min): 6457 mcg/well
- Top mcg/well ([1]; 16 mg/mL CAPEG4, 90 min): 6122 mcg/well and 6792 mcg/well
- Bottom % (stock) ([1]; 16 mg/mL CAPEG4, 90 min, stock 8186 mcg/well): 6.4%
- Bottom Average [1, 3]: 1837 mcg/well
- Bottom mcg/well [1, 3]: 1837 mcg/well
- Top Average [1, 3]: 7857 mcg/well
- Top mcg/well [1, 3]: 7857 mcg/well
- Bottom % (stock) ([1]; 16 mg/mL CAPEG4, blank insert (no tissue) at 15 min, stock 8186 mcg/well): 23%
- Rh ([2]; fast mode (monomer), 37° C.): 2.8 nm
- Rh ([2]; fast mode (monomer, first Rh column), 22° C.): 2.9 nm
- Rh ([2]; fast mode (monomer, first Rh column), 22° C., listed as CAPEG): 2.8 nm
